In ChEMBL document CHEMBL5465560, “Selectivity Literature for EUbOPEN Chemogenomic Library” (2024):
Values belong to the compound of their own block, whether it stands above or below them.

How the values were obtained:
[1] = molecular target: T1, Dual specificity mitogen-activated protein kinase kinase 3 (Homo sapiens) (UniProt P46734); assay: Selectivity interaction (ActivX KiNativ screen (kinase selectivity in THP-1 cell lysates)) EUB0000639a MAP2K3; type: subcellular; conditions: lysate, at 0.04 µM
T1 sequence (whole entry): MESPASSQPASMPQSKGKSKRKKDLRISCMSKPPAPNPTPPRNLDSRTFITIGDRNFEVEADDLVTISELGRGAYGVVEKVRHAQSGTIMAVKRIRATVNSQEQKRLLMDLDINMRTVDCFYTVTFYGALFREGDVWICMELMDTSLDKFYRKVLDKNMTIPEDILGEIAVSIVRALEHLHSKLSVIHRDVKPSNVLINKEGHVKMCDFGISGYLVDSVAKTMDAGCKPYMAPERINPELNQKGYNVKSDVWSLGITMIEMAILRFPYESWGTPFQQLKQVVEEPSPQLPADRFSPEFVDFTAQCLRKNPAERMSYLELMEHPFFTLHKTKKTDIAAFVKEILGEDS

[2] = molecular target: T2, Serine/threonine-protein kinase 3 (Homo sapiens) (UniProt Q13188); assay: Selectivity interaction (ActivX KiNativ screen (kinase selectivity in THP-1 cell lysates)) EUB0000639a STK3; type: subcellular; conditions: lysate, at 1 µM
T2 sequence (whole entry): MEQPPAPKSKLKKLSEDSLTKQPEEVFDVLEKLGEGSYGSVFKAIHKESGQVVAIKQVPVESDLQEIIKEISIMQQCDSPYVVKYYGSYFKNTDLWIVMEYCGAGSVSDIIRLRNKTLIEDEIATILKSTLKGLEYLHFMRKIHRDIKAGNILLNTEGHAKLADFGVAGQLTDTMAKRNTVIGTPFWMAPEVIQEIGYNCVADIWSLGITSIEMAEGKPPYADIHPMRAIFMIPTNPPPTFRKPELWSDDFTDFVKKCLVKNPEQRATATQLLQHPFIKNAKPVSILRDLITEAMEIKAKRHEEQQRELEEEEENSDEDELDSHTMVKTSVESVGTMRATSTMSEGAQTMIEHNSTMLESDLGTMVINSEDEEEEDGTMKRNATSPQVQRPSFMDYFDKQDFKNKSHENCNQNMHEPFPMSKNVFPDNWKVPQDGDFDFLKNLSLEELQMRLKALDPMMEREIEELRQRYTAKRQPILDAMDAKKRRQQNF

[3] = molecular target: Mitogen-activated protein kinase 7 (Homo sapiens) (UniProt Q13164); assay: Selectivity interaction (KinomeScan (DiscoverX)) EUB0000595a MAPK7; conditions: at 10 µM
[4] = molecular target: Receptor tyrosine-protein kinase erbB-4 (Homo sapiens, UniProt Q15303); assay: Selectivity interaction (KinomeScan (DiscoverX)) EUB0001079a ERBB4; conditions: at 1 µM
[5] = molecular target: Mitogen-activated protein kinase 11 (Homo sapiens) (UniProt Q15759); assay: Selectivity interaction (KinomeScan (DiscoverX)) EUB0001079a MAPK11; conditions: at 1 µM
[6] = molecular target: T3, Muscle, skeletal receptor tyrosine-protein kinase (Homo sapiens) (UniProt O15146); assay: Selectivity interaction (KinomeScan (DiscoverX)) EUB0001079a MUSK; conditions: at 1 µM
T3 sequence (whole entry): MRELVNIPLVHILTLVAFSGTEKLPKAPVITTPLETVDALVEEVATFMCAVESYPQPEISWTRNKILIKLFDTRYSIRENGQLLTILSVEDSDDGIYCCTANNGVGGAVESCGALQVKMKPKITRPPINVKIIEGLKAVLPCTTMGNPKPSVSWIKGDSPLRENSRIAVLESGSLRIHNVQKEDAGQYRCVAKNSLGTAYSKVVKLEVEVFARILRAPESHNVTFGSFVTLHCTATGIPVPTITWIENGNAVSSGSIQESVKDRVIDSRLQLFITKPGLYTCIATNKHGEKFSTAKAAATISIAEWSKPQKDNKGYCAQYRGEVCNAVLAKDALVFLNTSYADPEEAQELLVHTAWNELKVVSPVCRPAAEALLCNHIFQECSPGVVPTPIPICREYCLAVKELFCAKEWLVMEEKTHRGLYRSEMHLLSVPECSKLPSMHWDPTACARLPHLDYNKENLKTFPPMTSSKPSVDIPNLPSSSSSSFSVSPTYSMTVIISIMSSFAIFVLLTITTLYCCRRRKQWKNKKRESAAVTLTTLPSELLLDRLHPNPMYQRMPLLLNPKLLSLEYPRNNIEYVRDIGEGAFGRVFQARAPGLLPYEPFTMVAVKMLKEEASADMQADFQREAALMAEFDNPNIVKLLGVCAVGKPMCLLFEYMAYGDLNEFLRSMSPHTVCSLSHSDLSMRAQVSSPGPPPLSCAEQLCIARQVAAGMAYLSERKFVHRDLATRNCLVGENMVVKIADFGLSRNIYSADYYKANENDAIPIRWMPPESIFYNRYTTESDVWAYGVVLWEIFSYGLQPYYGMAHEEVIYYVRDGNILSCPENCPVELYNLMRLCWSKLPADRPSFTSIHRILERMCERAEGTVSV

[7] = molecular target: T4, Serine/threonine-protein kinase Chk1 (Homo sapiens) (UniProt O14757); assay: Selectivity interaction (KinomeScan (DiscoverX)) EUB0000045b CHEK1
T4 sequence (whole entry): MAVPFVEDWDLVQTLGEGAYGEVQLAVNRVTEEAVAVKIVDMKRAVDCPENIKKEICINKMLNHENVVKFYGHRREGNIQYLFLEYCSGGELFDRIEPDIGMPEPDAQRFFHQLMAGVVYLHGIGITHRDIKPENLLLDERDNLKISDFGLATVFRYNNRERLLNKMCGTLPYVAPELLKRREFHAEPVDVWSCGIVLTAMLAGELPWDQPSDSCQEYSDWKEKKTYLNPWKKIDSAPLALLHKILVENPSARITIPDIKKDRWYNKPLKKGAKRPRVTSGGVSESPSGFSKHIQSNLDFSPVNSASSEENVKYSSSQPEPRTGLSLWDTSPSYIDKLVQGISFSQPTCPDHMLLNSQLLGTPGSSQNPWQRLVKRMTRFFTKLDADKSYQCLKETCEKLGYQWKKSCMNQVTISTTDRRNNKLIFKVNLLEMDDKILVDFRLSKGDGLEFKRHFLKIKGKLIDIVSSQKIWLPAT

[8] = molecular target: Cyclin-dependent kinase 11A (Homo sapiens, UniProt Q9UQ88); assay: Selectivity interaction (Kinase panel (Invitrogen, enzymatic assay)) EUB0000162b CDK11A
Chain of Cyclin-dependent kinase 11A (Q9UQ88 whole entry): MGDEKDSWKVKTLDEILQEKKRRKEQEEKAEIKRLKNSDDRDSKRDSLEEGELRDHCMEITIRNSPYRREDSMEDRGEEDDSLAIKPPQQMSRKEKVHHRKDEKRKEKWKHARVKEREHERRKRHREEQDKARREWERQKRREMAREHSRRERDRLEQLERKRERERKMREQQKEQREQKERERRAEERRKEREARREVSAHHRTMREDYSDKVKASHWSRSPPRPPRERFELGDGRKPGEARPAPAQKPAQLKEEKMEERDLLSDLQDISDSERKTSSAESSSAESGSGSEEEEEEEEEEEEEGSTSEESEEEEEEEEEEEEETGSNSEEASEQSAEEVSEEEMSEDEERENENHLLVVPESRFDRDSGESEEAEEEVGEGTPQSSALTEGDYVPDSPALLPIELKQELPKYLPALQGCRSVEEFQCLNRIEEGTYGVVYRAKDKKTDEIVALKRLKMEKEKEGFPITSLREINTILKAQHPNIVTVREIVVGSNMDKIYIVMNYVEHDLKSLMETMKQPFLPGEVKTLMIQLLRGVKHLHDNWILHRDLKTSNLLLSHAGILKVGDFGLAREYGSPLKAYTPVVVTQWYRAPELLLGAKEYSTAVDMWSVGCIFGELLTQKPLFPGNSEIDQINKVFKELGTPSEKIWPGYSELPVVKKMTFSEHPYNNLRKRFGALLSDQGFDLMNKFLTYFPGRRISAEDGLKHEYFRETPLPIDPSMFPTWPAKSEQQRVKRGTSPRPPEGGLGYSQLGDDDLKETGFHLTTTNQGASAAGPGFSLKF

Chain of Mitogen-activated protein kinase 7 (Homo sapiens) (Q13164 2-816 limits assumed): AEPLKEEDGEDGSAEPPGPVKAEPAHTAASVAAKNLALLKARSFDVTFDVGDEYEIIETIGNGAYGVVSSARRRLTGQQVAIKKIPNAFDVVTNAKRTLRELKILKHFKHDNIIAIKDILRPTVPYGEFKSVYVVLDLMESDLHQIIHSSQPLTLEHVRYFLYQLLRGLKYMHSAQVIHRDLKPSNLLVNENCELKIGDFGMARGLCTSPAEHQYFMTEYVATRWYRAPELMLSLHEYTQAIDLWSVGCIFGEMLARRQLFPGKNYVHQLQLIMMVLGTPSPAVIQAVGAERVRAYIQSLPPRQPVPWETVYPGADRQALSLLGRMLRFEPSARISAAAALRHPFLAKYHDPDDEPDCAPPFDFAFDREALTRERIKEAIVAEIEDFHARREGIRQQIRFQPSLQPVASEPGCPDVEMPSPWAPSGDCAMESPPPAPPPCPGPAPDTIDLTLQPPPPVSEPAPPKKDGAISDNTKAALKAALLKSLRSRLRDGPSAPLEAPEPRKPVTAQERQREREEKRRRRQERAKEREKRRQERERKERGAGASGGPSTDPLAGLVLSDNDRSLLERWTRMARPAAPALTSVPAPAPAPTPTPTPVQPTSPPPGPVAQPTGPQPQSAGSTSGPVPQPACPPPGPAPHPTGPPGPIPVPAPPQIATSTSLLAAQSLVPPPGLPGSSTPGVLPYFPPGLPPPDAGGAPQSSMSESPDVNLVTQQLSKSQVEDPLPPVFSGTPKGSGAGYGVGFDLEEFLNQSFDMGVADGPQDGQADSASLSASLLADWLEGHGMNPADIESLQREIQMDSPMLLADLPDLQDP
Chain of Mitogen-activated protein kinase 11 (Homo sapiens) (Q15759 whole entry): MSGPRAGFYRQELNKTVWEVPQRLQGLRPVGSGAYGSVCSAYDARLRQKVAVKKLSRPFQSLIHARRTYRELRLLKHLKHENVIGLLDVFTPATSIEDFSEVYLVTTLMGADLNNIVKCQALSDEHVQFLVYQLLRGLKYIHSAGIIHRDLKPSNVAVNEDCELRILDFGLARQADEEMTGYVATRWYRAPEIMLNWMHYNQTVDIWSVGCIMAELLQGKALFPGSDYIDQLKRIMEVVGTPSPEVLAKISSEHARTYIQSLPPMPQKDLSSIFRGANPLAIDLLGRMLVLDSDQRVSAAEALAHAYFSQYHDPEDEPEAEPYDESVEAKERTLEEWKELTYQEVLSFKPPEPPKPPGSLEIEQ
Chain of Receptor tyrosine-protein kinase erbB-4 (Q15303 whole entry): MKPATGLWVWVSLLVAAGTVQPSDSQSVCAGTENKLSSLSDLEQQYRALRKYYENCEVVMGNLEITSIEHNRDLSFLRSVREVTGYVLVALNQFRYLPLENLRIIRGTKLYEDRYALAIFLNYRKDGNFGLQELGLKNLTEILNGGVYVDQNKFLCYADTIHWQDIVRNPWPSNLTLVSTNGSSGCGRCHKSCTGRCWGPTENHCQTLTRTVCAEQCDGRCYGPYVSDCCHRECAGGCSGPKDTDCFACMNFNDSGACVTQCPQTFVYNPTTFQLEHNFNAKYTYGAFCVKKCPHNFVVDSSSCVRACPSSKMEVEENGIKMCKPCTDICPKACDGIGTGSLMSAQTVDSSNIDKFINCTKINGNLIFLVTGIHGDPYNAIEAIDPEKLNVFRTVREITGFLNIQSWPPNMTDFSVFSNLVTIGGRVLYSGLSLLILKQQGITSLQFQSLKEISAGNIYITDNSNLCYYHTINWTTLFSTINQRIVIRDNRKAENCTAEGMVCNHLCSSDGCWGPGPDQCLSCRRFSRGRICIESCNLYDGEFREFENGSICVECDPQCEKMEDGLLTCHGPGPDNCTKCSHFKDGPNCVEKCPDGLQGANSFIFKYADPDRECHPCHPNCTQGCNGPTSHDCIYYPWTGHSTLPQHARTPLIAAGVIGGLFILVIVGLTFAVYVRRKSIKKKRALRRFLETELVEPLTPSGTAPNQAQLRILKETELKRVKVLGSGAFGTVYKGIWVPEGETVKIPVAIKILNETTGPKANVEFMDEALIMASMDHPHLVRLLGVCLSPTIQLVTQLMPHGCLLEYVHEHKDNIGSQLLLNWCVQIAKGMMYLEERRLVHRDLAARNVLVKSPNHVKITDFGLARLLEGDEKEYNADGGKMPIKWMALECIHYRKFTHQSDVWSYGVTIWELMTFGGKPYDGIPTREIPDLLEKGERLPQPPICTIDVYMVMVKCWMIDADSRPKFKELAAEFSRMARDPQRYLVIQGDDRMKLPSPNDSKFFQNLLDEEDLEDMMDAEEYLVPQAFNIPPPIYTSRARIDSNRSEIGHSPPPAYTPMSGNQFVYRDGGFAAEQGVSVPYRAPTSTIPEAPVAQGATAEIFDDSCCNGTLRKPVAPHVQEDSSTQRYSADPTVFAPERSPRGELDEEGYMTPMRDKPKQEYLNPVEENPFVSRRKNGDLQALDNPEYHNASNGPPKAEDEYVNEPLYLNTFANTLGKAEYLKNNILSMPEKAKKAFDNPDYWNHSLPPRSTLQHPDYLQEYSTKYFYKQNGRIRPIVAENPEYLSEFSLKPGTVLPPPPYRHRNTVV

% of inhibition [1]: -19%
% of inhibition [2]: -8%
SMILES: CC[C@@H]1[C@H](F)C(=O)N[C@@H]1COc1nccc2cc(C(N)=O)c(OC)cc12 [ZIMLOVISERTIB]

SMILES: COCC(=O)NC/C=C/c1ccc2ncnc(Nc3ccc(Oc4ccc(C)nc4)c(C)c3)c2c1 [CP-724714]
% of control [3]: 100%

SMILES: Nc1cnc(N2CCc3cc(S(=O)(=O)Nc4c(F)cc(Cl)cc4F)cc(N4CCCC4=O)c32)nc1 [TP-020n]
% of control [4]: 100%
% of control [5]: 100%
% of control [6]: 100%

SMILES: C=CC(=O)Nc1cc(-n2c(=O)ccc3cnc4ccc(-c5ccc(NS(C)(=O)=O)cc5)cc4c32)ccc1C
% of control ([7]; at 1 µM): 100%
% of control ([7]; at 10 µM): 79%

IC50 [8]: 1.7 nM
SMILES: CN(C)C(=O)Cn1cc(-c2ccc(-c3cncc4ccccc34)cc2)cn1
